Measured values reported in publication PMC11684895 (Briefings in Bioinformatics, 2024).

Columns and labels:
DNA gyrase subunit GyrB = DNA gyrase subunit GyrB (Mycobacterium tuberculosis, UniProt P9WG45); assay: SPR; format: binding
DNA gyrase subunit GyrA = DNA gyrase subunit GyrA (Mycobacterium tuberculosis, UniProt P9WG47); assay: SPR; format: binding
Sequence of DNA gyrase subunit GyrA (P9WG47 2-838): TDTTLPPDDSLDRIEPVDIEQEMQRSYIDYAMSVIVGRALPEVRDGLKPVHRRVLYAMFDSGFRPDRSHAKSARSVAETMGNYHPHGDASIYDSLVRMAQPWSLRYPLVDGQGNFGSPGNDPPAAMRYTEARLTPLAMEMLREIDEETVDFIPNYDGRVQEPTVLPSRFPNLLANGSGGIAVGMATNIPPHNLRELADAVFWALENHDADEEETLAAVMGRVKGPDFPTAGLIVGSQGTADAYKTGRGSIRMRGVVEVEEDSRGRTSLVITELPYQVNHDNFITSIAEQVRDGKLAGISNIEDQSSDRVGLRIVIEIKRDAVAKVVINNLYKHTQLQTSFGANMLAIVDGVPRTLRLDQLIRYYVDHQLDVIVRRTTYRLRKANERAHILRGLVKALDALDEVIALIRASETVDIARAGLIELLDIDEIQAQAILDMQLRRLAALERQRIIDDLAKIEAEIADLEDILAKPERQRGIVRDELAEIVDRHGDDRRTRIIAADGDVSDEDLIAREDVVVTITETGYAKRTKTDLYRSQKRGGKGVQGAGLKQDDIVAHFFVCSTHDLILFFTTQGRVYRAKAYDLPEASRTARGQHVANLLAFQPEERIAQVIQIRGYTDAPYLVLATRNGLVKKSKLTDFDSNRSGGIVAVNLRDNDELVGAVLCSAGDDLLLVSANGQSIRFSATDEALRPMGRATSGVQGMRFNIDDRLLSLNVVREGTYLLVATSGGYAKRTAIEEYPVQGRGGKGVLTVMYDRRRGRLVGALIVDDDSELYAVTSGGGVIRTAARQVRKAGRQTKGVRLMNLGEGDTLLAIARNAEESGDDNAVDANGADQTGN

Sequence of DNA gyrase subunit GyrB (P9WG45 whole entry): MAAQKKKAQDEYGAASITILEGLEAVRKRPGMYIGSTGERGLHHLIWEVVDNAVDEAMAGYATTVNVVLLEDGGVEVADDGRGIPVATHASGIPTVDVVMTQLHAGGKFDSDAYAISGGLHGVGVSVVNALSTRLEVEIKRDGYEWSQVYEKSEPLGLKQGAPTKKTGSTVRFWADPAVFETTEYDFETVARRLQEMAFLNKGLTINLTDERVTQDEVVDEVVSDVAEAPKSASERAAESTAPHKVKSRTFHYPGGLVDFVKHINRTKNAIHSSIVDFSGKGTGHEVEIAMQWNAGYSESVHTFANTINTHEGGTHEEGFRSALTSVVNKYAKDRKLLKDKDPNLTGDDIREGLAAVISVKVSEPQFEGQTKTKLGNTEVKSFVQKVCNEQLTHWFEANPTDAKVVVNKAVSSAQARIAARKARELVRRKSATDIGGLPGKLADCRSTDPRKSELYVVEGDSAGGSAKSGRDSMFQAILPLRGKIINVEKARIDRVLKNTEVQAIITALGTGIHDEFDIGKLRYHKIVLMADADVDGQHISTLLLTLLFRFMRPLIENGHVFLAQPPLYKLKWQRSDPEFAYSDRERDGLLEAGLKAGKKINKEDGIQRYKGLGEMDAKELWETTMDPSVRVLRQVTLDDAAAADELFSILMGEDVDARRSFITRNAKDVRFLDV

| Structure (SMILES) | Kd (DNA gyrase subunit GyrB) [µM] | Kd (DNA gyrase subunit GyrA) [µM] |
| --- | --- | --- |
| COc1cccc2c1C(=O)c1c(O)c3c(c(O)c1C2=O)C[C@@](O)(/C(CO)=N/NC(=O)CCCCCN1C(=O)C=CC1=O)C[C@@H]3O[C@H]1C[C@H](N)[C@H](O)[C@H](C)O1 [aldoxorubicin] | 0.324 | 0.4 |
| CN1CCC[C@H]1CCNC(=O)c1cn2c3c(c(N4CCC(c5cnccn5)C4)c(F)cc3c1=O)Oc1cc3ccccc3cc1-2 (stereo partly shown) [quarfloxin] | 30.1 | 2.89 |
